The text below walks through data of US9492471B2, “Methods of treating a disease or disorder associated with Bruton'S Tyrosine Kinase” (Celgene Avilomics Research, Inc., priority 2013, dated 2016).

Assay in all cases: HotSpot kinase profiling
Common to all, as to type: biochemical

The target of one test is T1, P70S6K/RPS6KB1 (Homo sapiens, UniProt P23443).
T1 construct: purchased Reaction Biology Corp
The essentials: (§1)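 Percent inhibition, averaged when run more than once and referenced to a DMSO negative control, came from a radioactive filter-binding readout on P81 paper. Reactions of kinase with freshly made substrate and cofactors ran for 2 h at room temperature.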

The next test has as its target T2, PYK2 (Homo sapiens, UniProt Q14289).
T2 construct: purchased Reaction Biology Corp
The essentials: as §1

The next test has as its target T3, TBK1 (Homo sapiens, UniProt Q9UHD2).
T3 construct: purchased Reaction Biology Corp
T3 sequence (Q9UHD2 1-729): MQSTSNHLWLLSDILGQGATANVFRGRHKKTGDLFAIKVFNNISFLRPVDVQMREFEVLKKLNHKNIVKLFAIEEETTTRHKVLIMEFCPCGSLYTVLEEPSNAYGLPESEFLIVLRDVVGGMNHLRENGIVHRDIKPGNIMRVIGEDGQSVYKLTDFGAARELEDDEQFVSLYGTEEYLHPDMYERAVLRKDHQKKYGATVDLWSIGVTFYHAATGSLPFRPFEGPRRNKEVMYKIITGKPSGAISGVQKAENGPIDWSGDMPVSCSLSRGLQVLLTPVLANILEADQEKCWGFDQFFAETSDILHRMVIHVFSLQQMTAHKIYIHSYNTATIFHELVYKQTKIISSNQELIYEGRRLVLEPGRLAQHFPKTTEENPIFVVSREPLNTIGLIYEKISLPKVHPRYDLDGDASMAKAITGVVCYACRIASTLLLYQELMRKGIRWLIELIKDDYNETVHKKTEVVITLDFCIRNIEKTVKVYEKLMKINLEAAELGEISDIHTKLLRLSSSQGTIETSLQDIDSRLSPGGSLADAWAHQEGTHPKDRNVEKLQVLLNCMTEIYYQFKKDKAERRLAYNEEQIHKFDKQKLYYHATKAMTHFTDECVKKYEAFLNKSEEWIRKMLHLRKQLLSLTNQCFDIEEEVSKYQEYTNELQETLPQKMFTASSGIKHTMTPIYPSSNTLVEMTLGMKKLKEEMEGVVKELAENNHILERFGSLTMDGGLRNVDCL
The essentials:
as §1

Another test addresses T4, TAOK2/TAO1 (Homo sapiens, UniProt Q9UL54).
T4 construct: purchased Reaction Biology Corp
T4 sequence (Q9UL54 1-1235): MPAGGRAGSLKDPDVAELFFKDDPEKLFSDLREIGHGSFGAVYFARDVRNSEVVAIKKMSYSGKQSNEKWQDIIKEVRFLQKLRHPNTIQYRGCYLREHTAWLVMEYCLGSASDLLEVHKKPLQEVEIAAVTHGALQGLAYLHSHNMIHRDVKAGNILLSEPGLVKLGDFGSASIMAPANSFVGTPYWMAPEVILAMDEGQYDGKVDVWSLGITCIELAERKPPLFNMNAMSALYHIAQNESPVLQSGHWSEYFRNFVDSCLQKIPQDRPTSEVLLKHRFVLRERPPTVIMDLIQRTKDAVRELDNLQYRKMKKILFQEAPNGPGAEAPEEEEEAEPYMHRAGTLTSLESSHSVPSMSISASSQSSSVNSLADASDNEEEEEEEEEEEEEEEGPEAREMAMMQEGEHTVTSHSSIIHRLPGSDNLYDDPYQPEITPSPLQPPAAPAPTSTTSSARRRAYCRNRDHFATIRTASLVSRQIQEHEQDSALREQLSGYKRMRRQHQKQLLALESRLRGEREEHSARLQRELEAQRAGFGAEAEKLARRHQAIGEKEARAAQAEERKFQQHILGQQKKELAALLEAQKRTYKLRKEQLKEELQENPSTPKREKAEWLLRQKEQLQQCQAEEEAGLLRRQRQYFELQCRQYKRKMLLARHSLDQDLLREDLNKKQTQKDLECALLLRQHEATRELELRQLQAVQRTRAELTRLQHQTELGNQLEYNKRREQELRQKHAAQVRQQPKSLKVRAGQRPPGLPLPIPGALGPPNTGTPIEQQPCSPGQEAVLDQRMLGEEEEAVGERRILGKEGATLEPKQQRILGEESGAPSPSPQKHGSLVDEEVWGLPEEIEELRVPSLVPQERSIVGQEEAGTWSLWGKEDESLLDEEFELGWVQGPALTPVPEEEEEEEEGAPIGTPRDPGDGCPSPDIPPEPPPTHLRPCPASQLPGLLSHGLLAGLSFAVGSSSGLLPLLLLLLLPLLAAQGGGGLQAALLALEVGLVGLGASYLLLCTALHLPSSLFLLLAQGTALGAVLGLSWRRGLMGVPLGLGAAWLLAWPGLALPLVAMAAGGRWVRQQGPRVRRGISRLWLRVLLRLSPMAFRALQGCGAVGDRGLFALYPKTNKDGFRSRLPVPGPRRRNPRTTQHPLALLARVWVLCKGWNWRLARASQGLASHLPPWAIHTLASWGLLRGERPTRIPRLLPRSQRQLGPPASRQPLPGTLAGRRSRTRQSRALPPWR
The method, boiled down: as §1

The next test concerns RAF1. The note with it: 3 μM. The method, boiled down: as §1
In another test the target is T5, MLK3/MAP3K11 (Homo sapiens, UniProt Q16584).
T5 construct: purchased Reaction Biology Corp
The method, boiled down:
as §1

For the next test, the target named is T6, ZIPK/DAPK3 (Homo sapiens, UniProt O43293).
T6 construct: purchased Reaction Biology Corp
The essentials: as §1

[1] abbreviates: read-out: % Enzyme Activity (relative to DMSO controls) Run 1.
The mark [2] stands for this setting: read-out: % Enzyme Activity (relative to DMSO controls) Run 2.

Like-named read-outs stand apart in the source and are kept apart here.

T5 sequence (Q16584 whole entry): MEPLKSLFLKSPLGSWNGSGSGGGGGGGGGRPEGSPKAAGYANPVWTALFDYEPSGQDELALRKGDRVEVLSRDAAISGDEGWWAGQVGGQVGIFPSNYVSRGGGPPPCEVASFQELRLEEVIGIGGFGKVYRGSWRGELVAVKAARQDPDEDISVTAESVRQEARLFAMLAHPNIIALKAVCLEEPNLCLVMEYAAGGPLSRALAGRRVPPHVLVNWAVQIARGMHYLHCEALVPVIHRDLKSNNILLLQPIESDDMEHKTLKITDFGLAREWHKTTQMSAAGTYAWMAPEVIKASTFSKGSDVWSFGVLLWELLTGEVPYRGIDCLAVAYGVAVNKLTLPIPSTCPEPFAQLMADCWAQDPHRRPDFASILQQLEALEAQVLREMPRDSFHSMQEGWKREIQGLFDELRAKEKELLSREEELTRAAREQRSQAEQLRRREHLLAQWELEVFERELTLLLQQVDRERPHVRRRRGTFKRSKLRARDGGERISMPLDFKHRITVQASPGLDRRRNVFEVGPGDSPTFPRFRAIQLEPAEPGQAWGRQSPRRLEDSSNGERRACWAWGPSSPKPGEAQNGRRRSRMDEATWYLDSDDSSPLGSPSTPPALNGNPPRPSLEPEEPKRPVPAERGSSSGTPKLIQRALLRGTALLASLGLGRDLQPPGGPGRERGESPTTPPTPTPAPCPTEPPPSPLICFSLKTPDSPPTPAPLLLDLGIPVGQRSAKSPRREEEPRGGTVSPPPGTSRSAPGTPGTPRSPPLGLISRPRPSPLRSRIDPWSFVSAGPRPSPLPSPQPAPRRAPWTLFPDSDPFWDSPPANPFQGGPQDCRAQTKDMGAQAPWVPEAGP
T6 sequence (O43293 whole entry): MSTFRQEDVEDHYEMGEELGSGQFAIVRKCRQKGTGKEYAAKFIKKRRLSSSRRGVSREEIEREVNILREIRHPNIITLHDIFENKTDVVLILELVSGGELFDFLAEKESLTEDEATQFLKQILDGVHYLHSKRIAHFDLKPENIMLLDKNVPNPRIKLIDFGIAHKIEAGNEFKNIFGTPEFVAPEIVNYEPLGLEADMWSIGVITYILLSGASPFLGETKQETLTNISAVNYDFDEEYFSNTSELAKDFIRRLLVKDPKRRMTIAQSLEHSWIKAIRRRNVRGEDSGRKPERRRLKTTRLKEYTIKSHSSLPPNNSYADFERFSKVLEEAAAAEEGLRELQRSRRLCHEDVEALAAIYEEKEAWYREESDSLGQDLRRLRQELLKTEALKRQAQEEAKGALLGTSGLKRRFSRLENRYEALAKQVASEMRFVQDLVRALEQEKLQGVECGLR
T1 sequence (P23443 whole entry): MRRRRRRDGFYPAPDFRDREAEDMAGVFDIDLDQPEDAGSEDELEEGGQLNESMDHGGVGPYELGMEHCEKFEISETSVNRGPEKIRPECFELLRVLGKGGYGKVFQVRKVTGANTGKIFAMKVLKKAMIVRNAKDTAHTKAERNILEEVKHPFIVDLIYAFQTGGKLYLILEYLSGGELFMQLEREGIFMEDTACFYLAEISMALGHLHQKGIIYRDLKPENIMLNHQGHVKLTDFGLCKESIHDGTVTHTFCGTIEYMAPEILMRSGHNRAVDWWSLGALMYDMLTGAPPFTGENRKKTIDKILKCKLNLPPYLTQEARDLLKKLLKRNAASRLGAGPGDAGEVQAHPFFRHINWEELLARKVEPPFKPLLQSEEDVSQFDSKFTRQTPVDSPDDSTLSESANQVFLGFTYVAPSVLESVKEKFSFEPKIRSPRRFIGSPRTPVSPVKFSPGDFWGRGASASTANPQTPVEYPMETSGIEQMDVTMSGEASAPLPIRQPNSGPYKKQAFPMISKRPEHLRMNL
T2 sequence (Q14289 whole entry): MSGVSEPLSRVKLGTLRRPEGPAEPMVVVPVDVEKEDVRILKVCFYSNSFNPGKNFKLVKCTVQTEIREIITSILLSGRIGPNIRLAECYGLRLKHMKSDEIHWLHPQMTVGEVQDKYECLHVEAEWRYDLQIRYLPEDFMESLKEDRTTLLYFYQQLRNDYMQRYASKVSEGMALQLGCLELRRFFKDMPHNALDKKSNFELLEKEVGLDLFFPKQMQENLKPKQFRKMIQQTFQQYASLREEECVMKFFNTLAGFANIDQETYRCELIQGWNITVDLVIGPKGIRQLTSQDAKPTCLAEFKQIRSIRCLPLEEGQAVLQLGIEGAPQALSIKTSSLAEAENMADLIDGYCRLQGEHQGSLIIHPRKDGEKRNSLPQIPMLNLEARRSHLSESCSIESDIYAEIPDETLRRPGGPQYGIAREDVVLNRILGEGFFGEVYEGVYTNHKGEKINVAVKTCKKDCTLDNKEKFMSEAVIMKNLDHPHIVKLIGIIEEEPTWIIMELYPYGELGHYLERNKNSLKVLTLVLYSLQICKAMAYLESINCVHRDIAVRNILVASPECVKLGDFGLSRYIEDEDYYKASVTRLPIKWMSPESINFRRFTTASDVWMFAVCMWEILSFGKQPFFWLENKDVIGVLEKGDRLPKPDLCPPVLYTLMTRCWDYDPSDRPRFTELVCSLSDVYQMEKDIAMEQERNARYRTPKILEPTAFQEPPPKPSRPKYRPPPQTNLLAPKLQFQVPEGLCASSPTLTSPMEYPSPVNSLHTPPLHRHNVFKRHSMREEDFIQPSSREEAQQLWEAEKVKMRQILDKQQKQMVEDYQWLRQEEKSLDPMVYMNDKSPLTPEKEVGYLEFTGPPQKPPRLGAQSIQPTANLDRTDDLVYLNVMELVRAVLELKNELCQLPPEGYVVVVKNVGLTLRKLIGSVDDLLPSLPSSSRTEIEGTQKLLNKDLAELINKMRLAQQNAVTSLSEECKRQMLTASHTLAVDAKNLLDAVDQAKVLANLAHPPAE

For orientation: inhibition means the change of the read-out against control, counted positive when it falls. With `C=CC(=O)Nc1cccc(Nc2nc(Nc3ccc(OCCOC)c(F)c3)ncc2F)c1` [Compound 2], the inhibition at 3 µM at P70S6K/RPS6KB1 was 16.5%; against PYK2 it was 29.6%; on TBK1, 41.3%; against TAOK2/TAO1, 3.53%; against MLK3/MAP3K11, 73.4%; against ZIPK/DAPK3, -11.3%. The remaining activity at 3 µM at P70S6K/RPS6KB1 (setting [1]) was 85.9%; at P70S6K/RPS6KB1 (setting [2]), 81%; on PYK2 (setting [1]), 70.6%; at PYK2 (setting [2]), 70.1%; at TBK1 (setting [1]), 58.1%; at TBK1 (setting [2]) it was 59.2%. Also, the remaining activity at 3 µM at TAOK2/TAO1 (setting [1]) is 98.5%; at TAOK2/TAO1 (setting [2]) it was 94.4%; at MLK3/MAP3K11 (setting [1]) it was 27.9%; at MLK3/MAP3K11 (setting [2]) it was 25.2%; at ZIPK/DAPK3 (setting [1]), 109%; on ZIPK/DAPK3 (setting [2]), 113%. Further, in the test on RAF1, the “% Enzyme Activity (relative to DMSO controls) Run 1” value came out at 83.34%. In addition, the “% Enzyme Activity (relative to DMSO controls) Run 2” value in the test on RAF1 was found to be 83.62%. In the test with RAF1, the “Average % Inhibition” value is recorded as 16.52%.
